From patent publication US8642609B2, “Modulators of ATP-binding cassette transporters” (Vertex Pharmaceuticals Incorporated, priority 2003, dated 2014) come the findings set out here.

The target in the experiment is T1, ΔF508-CFTR (Homo sapiens, UniProt P13569, DEL508-508).
T1 construct: expressed in transfected cells
Put plainly: Membrane potential optical assay (FRET/VIPR), identification of correction compounds. The format is cell-based. The gist of the method:
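Corrector screen: FRET voltage-sensor dyes (CC2-DMPE donor, DiSBAC2(3)) report Cl^− efflux-driven depolarization after 10 μM forskolin and 20 μM genistein in Cl^−-free medium. Beforehand, ΔF508-CFTR NIH3T3 fibroblasts received compound for 16 hrs at 37° C; temperature-corrected cells (27° C) served as positive control.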

What is called EC50 is the concentration at which the effect is half-maximal. In general, Emax refers to the maximal effect, on the per cent scale that the assay sets.

T1 sequence (P13569 with tags, fused parts or gaps DEL508-508): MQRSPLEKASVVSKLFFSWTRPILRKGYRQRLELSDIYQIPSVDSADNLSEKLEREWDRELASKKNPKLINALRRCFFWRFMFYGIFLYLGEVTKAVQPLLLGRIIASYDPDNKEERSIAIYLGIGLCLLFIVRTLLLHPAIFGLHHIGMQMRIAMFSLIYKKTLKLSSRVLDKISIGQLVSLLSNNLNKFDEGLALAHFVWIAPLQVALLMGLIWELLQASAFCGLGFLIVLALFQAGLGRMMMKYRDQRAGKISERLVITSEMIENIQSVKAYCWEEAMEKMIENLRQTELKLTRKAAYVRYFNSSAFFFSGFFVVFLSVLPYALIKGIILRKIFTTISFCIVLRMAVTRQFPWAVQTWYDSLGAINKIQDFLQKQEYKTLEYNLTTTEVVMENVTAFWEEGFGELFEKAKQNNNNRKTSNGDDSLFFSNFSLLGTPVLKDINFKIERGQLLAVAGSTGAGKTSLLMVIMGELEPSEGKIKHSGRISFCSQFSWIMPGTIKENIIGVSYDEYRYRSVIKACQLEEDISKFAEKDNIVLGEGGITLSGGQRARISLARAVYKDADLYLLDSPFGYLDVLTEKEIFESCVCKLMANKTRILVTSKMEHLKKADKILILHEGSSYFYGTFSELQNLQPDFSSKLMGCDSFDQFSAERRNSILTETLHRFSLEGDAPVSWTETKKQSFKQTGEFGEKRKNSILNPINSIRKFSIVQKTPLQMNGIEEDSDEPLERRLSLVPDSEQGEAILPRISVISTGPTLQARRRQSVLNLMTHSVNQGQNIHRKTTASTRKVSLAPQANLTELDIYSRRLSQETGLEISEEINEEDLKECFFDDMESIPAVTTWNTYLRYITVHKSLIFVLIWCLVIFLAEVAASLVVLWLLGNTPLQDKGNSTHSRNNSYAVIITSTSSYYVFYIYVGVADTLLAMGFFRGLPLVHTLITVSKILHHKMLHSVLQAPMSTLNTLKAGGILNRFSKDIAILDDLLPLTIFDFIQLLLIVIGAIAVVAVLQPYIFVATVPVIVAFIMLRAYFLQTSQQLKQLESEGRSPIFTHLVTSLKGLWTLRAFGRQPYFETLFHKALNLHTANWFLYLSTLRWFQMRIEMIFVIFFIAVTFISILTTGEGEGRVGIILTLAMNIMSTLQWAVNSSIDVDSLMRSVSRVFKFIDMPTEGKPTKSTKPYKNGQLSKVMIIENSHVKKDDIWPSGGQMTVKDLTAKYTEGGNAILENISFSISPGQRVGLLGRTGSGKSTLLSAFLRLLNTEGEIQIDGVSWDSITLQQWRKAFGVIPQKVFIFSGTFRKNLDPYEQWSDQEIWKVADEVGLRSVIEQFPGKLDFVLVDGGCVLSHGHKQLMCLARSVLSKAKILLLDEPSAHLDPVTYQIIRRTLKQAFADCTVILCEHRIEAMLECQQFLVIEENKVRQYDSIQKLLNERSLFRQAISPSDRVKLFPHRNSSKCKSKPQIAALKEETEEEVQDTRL

Turning to `CC(c1nc2ccc(S(C)(=O)=O)cc2c(=O)n1C)N1CCN(S(=O)(=O)c2ccccc2)CC1` (stereo not shown) [compound 138], the EC50 is 10 to 25 µM. The Emax (relative efficacy) is less than 25%. Turning to `Cc1ccc(S(=O)(=O)N2CCN(C(C)c3nc4ccc(S(C)(=O)=O)cc4c(=O)n3C)CC2)cc1` (stereo not shown) [compound 139], the EC50 fell in the range of 10 to 25 µM. For the same molecule, the Emax (relative efficacy) lay in the range of 25 to 100%. The like results for `COc1ccc(S(=O)(=O)N2CCN(C(C)c3nc4ccc(S(C)(=O)=O)cc4c(=O)n3C)CC2)cc1` (stereo not shown) [compound 140] were, in that order, 10 to 25 µM and 25 to 100%. For `CC(c1nc2ccc(S(C)(=O)=O)cc2c(=O)n1C)N1CCN(S(=O)(=O)c2ccc(Cl)cc2)CC1` (stereo not shown) [compound 141], the EC50 was 10 to 25 µM. Where the note is “relative efficacy”, the Emax was 25 to 100%. `CC(c1nc2ccc(S(C)(=O)=O)cc2c(=O)n1C)N1CCN(S(=O)(=O)c2ccc(Br)cc2)CC1` (stereo not shown) [compound 142]: the concentration giving a half-maximal response (EC50) was 10 to 25 µM. Further, the Emax (relative efficacy) was in the range of 25 to 100%.

With `COc1ccc(S(=O)(=O)N2CCN(C(C)c3nc4ccc(C(N)=O)cc4c(=O)n3C)CC2)cc1` (stereo not shown) [compound 143], the EC50 lay within 25 to 60 µM. In addition, where the note is “relative efficacy”, the Emax lay within 25 to 100%.

As to `COc1ccc(S(=O)(=O)N2CCN(C(C)c3nc4ccc(-c5nnn[nH]5)cc4c(=O)n3C)CC2)cc1` (stereo not shown) [compound 144], the EC50 lay within 25 to 60 µM. The maximum response (Emax) (relative efficacy) lay within 25 to 100%. In the case of `COc1ccc(S(=O)(=O)N2CCN(C(C)c3nc4ccc(N)cc4c(=O)n3C)CC2)cc1` (stereo not shown) [compound 145], the half-maximal effective concentration (EC50) fell in the range of 10 to 25 µM. The Emax (relative efficacy) fell in the range of 25 to 100%.

For the molecule `CC(c1nc2ccc(N)cc2c(=O)n1C)N1CCN(S(=O)(=O)c2ccc(Br)cc2)CC1` (stereo not shown) [compound 146], the half-maximal effective concentration (EC50) was less than 10 µM. Moreover, where the note is “relative efficacy”, the Emax was more than 100%. The matching figures for `CCCn1c([C@H](C)N2CCN(S(=O)(=O)c3ccc(Br)cc3)CC2)nc2ccccc2c1=O` [compound 147]: less than 10 µM and more than 100%. The matching figures for `CCCn1c([C@@H](C)N2CCN(S(=O)(=O)c3ccc(Br)cc3)CC2)nc2ccccc2c1=O` [compound 148]: less than 10 µM and more than 100%. In the case of `COc1ccc(S(=O)(=O)N2CCN(C(C)(C)c3nc4ccc(Cl)cc4c(=O)n3C)CC2)cc1` [compound 149], the half-maximal effective concentration (EC50) was less than 10 µM. Further, the Emax (relative efficacy) lay in the range of 25 to 100%. For the molecule `CCCn1c(CN2CCN(S(=O)(=O)c3ccc(OC)cc3)CC2)nc2ccccc2c1=O` [compound 150], the EC50 is 10 to 25 µM. In addition, the maximum response (Emax) (relative efficacy) is 25 to 100%. The matching figures for `CCCn1c(CN2CCN(S(=O)(=O)c3ccc(Cl)cc3)CC2)nc2ccccc2c1=O` [compound 151]: 10 to 25 µM and more than 100%. The matching figures for `CCCn1c(CN2CCN(S(=O)(=O)c3ccc(Br)cc3)CC2)nc2ccccc2c1=O` [compound 152]: less than 10 µM and more than 100%.

Regarding `CC(c1nc2ccccc2c(=O)n1CCO)N1CCN(S(=O)(=O)c2ccc(Br)cc2)CC1` (stereo not shown) [compound 153], the EC50 was 10 to 25 µM. Besides, under “relative efficacy”, the Emax was 25 to 100%.

On to `CC(c1nc2ccc(-c3nnn[nH]3)cc2c(=O)n1C)N1CCN(S(=O)(=O)c2ccc(Cl)cc2)CC1` (stereo not shown) [compound 154], for which the EC50 lay in the range of 25 to 60 µM. Besides, the maximal effect (Emax) (relative efficacy) was more than 100%. Consider `COc1ccc(S(=O)(=O)N2CCN(C(C)c3nc4ccc(NC(C)=O)cc4c(=O)n3C)CC2)cc1` (stereo not shown) [compound 155], for which the EC50 was less than 10 µM. The Emax (relative efficacy) lay in the range of 25 to 100%. For `CC(c1nc2ccc(C(N)=O)cc2c(=O)n1C)N1CCN(S(=O)(=O)c2ccc(Br)cc2)CC1` (stereo not shown) [compound 156], the EC50 fell in the range of 10 to 25 µM. Besides, the maximum response (Emax) (relative efficacy) was in the range of 25 to 100%.

As to `CC(c1nc2ccc(C(N)=O)cc2c(=O)n1C)N1CCN(S(=O)(=O)c2ccc(Cl)cc2)CC1` (stereo not shown) [compound 157], the half-maximal effective concentration (EC50) was in the range of 25 to 60 µM. Further, where the note is “relative efficacy”, the Emax lay within 25 to 100%. The like results for `CCCOc1nc(CC)nc2ccccc12` [compound 158] were, in that order, 25 to 60 µM and less than 25%.

Consider `CCc1nc(N(C)C)c2ccccc2n1` [compound 159], for which the concentration for a half-maximal effect (EC50) lay in the range of 25 to 60 µM. Where the note is “relative efficacy”, the Emax is less than 25%. The matching figures for `COc1ccc(S(=O)(=O)NC2CCN(C(C)c3nc4ccccc4c(=O)n3C)C2)cc1` (stereo not shown) [compound 161]: 25 to 60 µM and less than 25%. The matching figures for `CC(c1nc2ccccc2c(=O)n1C)N1CCC(NS(=O)(=O)c2ccc(Cl)cc2)C1` (stereo not shown) [compound 162]: 25 to 60 µM and less than 25%. The matching figures for `CC(c1nc2ccccc2c(=O)n1C)N1CCC(NS(=O)(=O)c2ccc(Br)cc2)C1` (stereo not shown) [compound 163]: 25 to 60 µM and less than 25%. On to `COc1ccc(S(=O)(=O)NC2CCN(C(C)c3nc4ccccc4c(=O)n3C)CC2)cc1` (stereo not shown) [compound 164], for which the concentration for a half-maximal effect (EC50) was 25 to 60 µM. Moreover, the maximum response (Emax) (relative efficacy) is 25 to 100%. On to `CC(c1nc2ccccc2c(=O)n1C)N1CCC(NS(=O)(=O)c2ccc(Cl)cc2)CC1` (stereo not shown) [compound 165], for which the EC50 is less than 10 µM. The Emax (relative efficacy) was in the range of 25 to 100%. For the molecule `CC(c1nc2ccccc2c(=O)n1C)N1CCC(NS(=O)(=O)c2ccc(Br)cc2)CC1` (stereo not shown) [compound 166], the EC50 is less than 10 µM. In addition, the Emax (relative efficacy) lay within 25 to 100%. In the case of `COc1ccc(S(=O)(=O)NCCNC(C)c2nc3ccccc3c(=O)n2C)cc1` (stereo not shown) [compound 167], the EC50 is 25 to 60 µM. The Emax (relative efficacy) was less than 25%. Turning to `CC(NCCNS(=O)(=O)c1ccc(Cl)cc1)c1nc2ccccc2c(=O)n1C` (stereo not shown) [compound 168], the EC50 lay in the range of 25 to 60 µM. Moreover, the maximum response (Emax) (relative efficacy) was less than 25%.

Take `CC(NCCNS(=O)(=O)c1ccc(Br)cc1)c1nc2ccccc2c(=O)n1C` (stereo not shown) [compound 169]: the concentration for a half-maximal effect (EC50) was in the range of 25 to 60 µM. For the same molecule, the Emax (relative efficacy) fell in the range of 25 to 100%. As to `COc1ccc(S(=O)(=O)N2CCCN(C(C)c3nc4ccccc4c(=O)n3C)CC2)cc1` (stereo not shown) [compound 170], the EC50 was 25 to 60 µM. The Emax (relative efficacy) lay in the range of 25 to 100%. The like results for `CC(c1nc2ccccc2c(=O)n1C)N1CCCN(S(=O)(=O)c2ccc(Cl)cc2)CC1` (stereo not shown) [compound 171] were, in that order, 10 to 25 µM and 25 to 100%. For the molecule `CC(c1nc2ccccc2c(=O)n1C)N1CCCN(S(=O)(=O)c2ccc(Br)cc2)CC1` (stereo not shown) [compound 172], the EC50 was less than 10 µM. Further, the Emax (relative efficacy) was 25 to 100%. The matching figures for `CC(NCCCNS(=O)(=O)c1ccc(Cl)cc1)c1nc2ccccc2c(=O)n1C` (stereo not shown) [compound 173]: 25 to 60 µM and 25 to 100%. In the case of `CC(NCCCNS(=O)(=O)c1ccc(Br)cc1)c1nc2ccccc2c(=O)n1C` (stereo not shown) [compound 174], the EC50 lay within 25 to 60 µM. The Emax (relative efficacy) lay within 25 to 100%. As for `COc1ccc(S(=O)(=O)N2CC3CC2CN3C(C)c2nc3ccccc3c(=O)n2C)cc1` (stereo not shown) [compound 175], the 50% effective concentration (EC50) fell in the range of 25 to 60 µM. Further, the maximum response (Emax) (relative efficacy) was less than 25%. Regarding `CC(c1nc2ccccc2c(=O)n1C)N1CC2CC1CN2S(=O)(=O)c1ccc(Cl)cc1` (stereo not shown) [compound 176], the 50% effective concentration (EC50) lay within 25 to 60 µM. Also, the maximum response (Emax) (relative efficacy) fell in the range of 25 to 100%.

`CC(c1nc2ccccc2c(=O)n1C)N1CC2CC1CN2S(=O)(=O)c1ccc(Br)cc1` (stereo not shown) [compound 177]: the EC50 lay within 25 to 60 µM. In addition, the Emax (relative efficacy) lay within 25 to 100%. Turning to `CC(c1nc2ccccc2c(=O)n1C)N1CCC(N)C1` (stereo not shown) [compound 178], the EC50 lay within 25 to 60 µM. Also, the maximal effect (Emax) (relative efficacy) is less than 25%. For the molecule `CC(NC1CCNCC1)c1nc2ccccc2c(=O)n1C` (stereo not shown) [compound 179], the half-maximal effective concentration (EC50) is 25 to 60 µM. Besides, the Emax (relative efficacy) is less than 25%. As for `CC(c1nc2ccccc2c(=O)n1C)N1CCC(N)CC1` (stereo not shown) [compound 180], the EC50 fell in the range of 25 to 60 µM. Also, the maximum response (Emax) (relative efficacy) was less than 25%. The like results for `CC(NCCN)c1nc2ccccc2c(=O)n1C` (stereo not shown) [compound 181] were, in that order, 25 to 60 µM and less than 25%. In the case of `CNCCNC(C)c1nc2ccccc2c(=O)n1C` (stereo not shown) [compound 182], the half-maximal effective concentration (EC50) lay in the range of 25 to 60 µM. The maximum response (Emax) (relative efficacy) is less than 25%. For `CC(NCC1CCCCN1)c1nc2ccccc2c(=O)n1C` (stereo not shown) [compound 183], the maximum response (Emax) (relative efficacy) is less than 25%.

Regarding `CC(NC[C@@H]1CCCCN1)c1nc2ccccc2c(=O)n1C` (stereo partly shown) [compound 183], the EC50 lay within 25 to 60 µM. Take `CC(c1nc2ccccc2c(=O)n1C)N1CCCNCC1` (stereo not shown) [compound 184]: the 50% effective concentration (EC50) was in the range of 25 to 60 µM. Besides, the maximal effect (Emax) (relative efficacy) is less than 25%.

In the case of `CC(NCCCN)c1nc2ccccc2c(=O)n1C` (stereo not shown) [compound 185], the EC50 was 25 to 60 µM. Further, where the note is “relative efficacy”, the maximal effect (Emax) is less than 25%. Regarding `CC(c1nc2ccccc2c(=O)n1C)N1CC2CC1CN2` (stereo not shown) [compound 186], the EC50 was in the range of 25 to 60 µM. Where the note is “relative efficacy”, the Emax is less than 25%. With `COc1ccc(S(=O)(=O)N2CCN(C(C)c3nc(OC)c4ccccc4n3)CC2)cc1` (stereo not shown) [compound 187], the EC50 was 25 to 60 µM. Also, the maximum response (Emax) (relative efficacy) was 25 to 100%. The like results for `CCOc1nc(C(C)N2CCN(S(=O)(=O)c3ccc(OC)cc3)CC2)nc2ccccc12` (stereo not shown) [compound 188] were, in that order, 10 to 25 µM and more than 100%.

As for `CCCOc1nc(C(C)N2CCN(S(=O)(=O)c3ccc(OC)cc3)CC2)nc2ccccc12` (stereo not shown) [compound 189], the EC50 was 10 to 25 µM. Besides, for the setting “relative efficacy”, the maximal effect (Emax) is more than 100%.

For the molecule `COc1ccc(S(=O)(=O)N2CCN(C(C)c3nc(OC(C)C)c4ccccc4n3)CC2)cc1` (stereo not shown) [compound 190], the EC50 is less than 10 µM. For the setting “relative efficacy”, the Emax was more than 100%. On to `COc1ccc(S(=O)(=O)N2CCN(C(C)c3nc(OC4CCCC4)c4ccccc4n3)CC2)cc1` (stereo not shown) [compound 191], for which the EC50 is less than 10 µM. For the same molecule, the “% Efficacy” value (relative efficacy) is recorded as “+++ (“+++” means >100%)”.

On to `CNc1nc(C(C)N2CCN(S(=O)(=O)c3ccc(OC)cc3)CC2)nc2ccccc12` (stereo not shown) [compound 192], for which the EC50 is 25 to 60 µM. The Emax (relative efficacy) lay in the range of 25 to 100%. As to `COc1ccc(S(=O)(=O)N2CCN(C(C)c3nc(N(C)C)c4ccccc4n3)CC2)cc1` (stereo not shown) [compound 193], the EC50 lay within 25 to 60 µM. In addition, where the note is “relative efficacy”, the Emax was 25 to 100%.

Turning to `CCNc1nc(C(C)N2CCN(S(=O)(=O)c3ccc(OC)cc3)CC2)nc2ccccc12` (stereo not shown) [compound 194], the EC50 is 25 to 60 µM. The maximum response (Emax) (relative efficacy) fell in the range of 25 to 100%.
